In brackets after ≈: the same amount, converted by molar mass. One block for each compound: values may come before it. Activity calls are given as the source filed them. No cut-off for these calls is given here.
Legend:
[1] = biological target: T1, S-phase kinase-associated protein 2/Cyclin-dependent kinases regulatory subunit 1/S-phase kinase-associated protein 1 (Homo sapiens, UniProt Q13309); assay: Inhibition of GST-tagged Skp2/Skp1 (unknown origin)/His6-tagged Cks1 (unknown origin) interaction by AlphaScreen assay; format: protein assay
T1 sequence (P61024 whole entry): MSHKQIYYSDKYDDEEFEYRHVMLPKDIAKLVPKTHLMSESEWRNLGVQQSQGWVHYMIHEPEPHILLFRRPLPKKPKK
T1 sequence (Q13309 whole entry): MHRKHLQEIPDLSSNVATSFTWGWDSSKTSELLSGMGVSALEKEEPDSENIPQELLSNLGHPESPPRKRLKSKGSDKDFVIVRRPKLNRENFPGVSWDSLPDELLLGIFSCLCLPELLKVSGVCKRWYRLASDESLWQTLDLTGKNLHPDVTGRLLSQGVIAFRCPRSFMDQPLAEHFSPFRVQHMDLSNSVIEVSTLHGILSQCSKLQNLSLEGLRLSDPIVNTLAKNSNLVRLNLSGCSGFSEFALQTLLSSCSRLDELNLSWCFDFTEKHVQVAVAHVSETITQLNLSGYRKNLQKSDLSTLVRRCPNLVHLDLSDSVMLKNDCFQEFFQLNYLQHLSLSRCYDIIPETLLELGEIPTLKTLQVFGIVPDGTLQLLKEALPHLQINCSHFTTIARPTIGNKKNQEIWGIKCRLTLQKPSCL
T1 sequence (P63208 whole entry, further chain): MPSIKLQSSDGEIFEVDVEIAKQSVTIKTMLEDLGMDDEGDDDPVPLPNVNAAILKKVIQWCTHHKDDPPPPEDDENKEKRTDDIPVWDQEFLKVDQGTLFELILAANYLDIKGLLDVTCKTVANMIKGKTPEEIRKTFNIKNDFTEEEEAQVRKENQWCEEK

PC-3 [2] = assay: Upregulation of p27 level in human PC-3 cells at 20 uM incubated for 48 hrs by Western blot analysis; format: functional, cell-based
PC-3 [3] = assay: Upregulation of p21 level in human PC-3 cells at 20 uM incubated for 48 hrs by Western blot analysis; format: functional, cell-based
PC-3 [4] = assay: Downregulation of Skp2 level in human PC-3 cells at 20 uM incubated for 48 hrs by Western blot analysis; format: functional, cell-based
[5] = biological target: T1, S-phase kinase-associated protein 2/Cyclin-dependent kinases regulatory subunit 1/S-phase kinase-associated protein 1; assay: Inhibition of GST-tagged Skp2/Skp1 (unknown origin)/His6-tagged Cks1 (unknown origin) interaction preincubated with Skp2/Skp1 for 10 mins followed by Cks1 addition measured after 20 mins by HTRF assay; format: protein assay
MGC-803 [6] = assay: Downregulation of Skp2 level in human MGC-803 cells at 20 uM incubated for 48 hrs by Western blot analysis; format: functional, cell-based
MGC-803 [7] = assay: Upregulation of p21 level in human MGC-803 cells at 20 uM incubated for 48 hrs by Western blot analysis; format: functional, cell-based
MGC-803 [8] = assay: Upregulation of p27 level in human MGC-803 cells at 20 uM incubated for 48 hrs by Western blot analysis; format: functional, cell-based
PC-3 [9] = assay: Induction of cell cycle arrest in human PC-3 cells assessed as accumulation of cells at G1 phase at 20 uM incubated for 48 hrs by flow cytometry (reference value: 57.39 %); format: functional
PC-3 [10] = assay: Induction of cell cycle arrest in human PC-3 cells assessed as accumulation of cells at S phase at 20 uM incubated for 48 hrs by flow cytometry (reference value: 22.44 %); format: functional
PC-3 [11] = assay: Induction of cell cycle arrest in human PC-3 cells assessed as accumulation of cells at G2 phase at 20 uM incubated for 48 hrs by flow cytometry (reference value: 22.59 %); format: functional
MGC-803 [12] = assay: Induction of cell cycle arrest in human MGC-803 cells assessed as accumulation of cells at G1 phase at 20 uM incubated for 48 hrs by flow cytometry (reference value: 54.46 %); format: functional
MGC-803 [13] = assay: Induction of cell cycle arrest in human MGC-803 cells assessed as accumulation of cells at S phase at 20 uM incubated for 48 hrs by flow cytometry (reference value: 22.72 %); format: functional
MGC-803 [14] = assay: Induction of cell cycle arrest in human MGC-803 cells assessed as accumulation of cells at G2 phase at 20 uM incubated for 48 hrs by flow cytometry (reference value: 21.35 %); format: functional
PC-3 [15] = assay: Induction of apoptosis in human PC-3 cells assessed as viable cells at 20 uM incubated for 48 hrs by annexin V-FITC/PI staining based flow cytometry (reference value: 98.6 %); format: functional; conditions: read-out: Activity
PC-3 [16] = assay: Induction of apoptosis in human PC-3 cells assessed as early apoptotic cells at 20 uM incubated for 48 hrs by annexin V-FITC/PI staining based flow cytometry (reference value: 0.85 %); format: functional
PC-3 [17] = assay: Induction of apoptosis in human PC-3 cells assessed as late apoptotic cells at 20 uM incubated for 48 hrs by annexin V-FITC/PI staining based flow cytometry (reference value: 0.45 %); format: functional
PC-3 [18] = assay: Induction of apoptosis in human PC-3 cells assessed as necrotic cells at 20 uM incubated for 48 hrs by annexin V-FITC/PI staining based flow cytometry (reference value: 0.14 %); format: functional
MGC-803 [19] = assay: Induction of apoptosis in human MGC-803 cells assessed as viable cells at 20 uM incubated for 48 hrs by annexin V-FITC/PI staining based flow cytometry (reference value: 98 %); format: functional; conditions: read-out: Activity
MGC-803 [20] = assay: Induction of apoptosis in human MGC-803 cells assessed as early apoptotic cells at 20 uM incubated for 48 hrs by annexin V-FITC/PI staining based flow cytometry (reference value: 0.21 %); format: functional
MGC-803 [21] = assay: Induction of apoptosis in human MGC-803 cells assessed as late apoptotic cells at 20 uM incubated for 48 hrs by annexin V-FITC/PI staining based flow cytometry (reference value: 0.95 %); format: functional
MGC-803 [22] = assay: Induction of apoptosis in human MGC-803 cells assessed as necrotic cells at 20 uM incubated for 48 hrs by annexin V-FITC/PI staining based flow cytometry (reference value: 0.89 %); format: functional
PC-3 [23] = assay: Antitumor activity against human PC-3 cells xenografted in NOD-SCID mouse model assessed as tumor growth inhibition at 5 mg/kg, ip administered once every 3 days for 21 days relative to control; format: functional; conditions: PC-3, 504 h, time 21 day, read-out: TGI
[24] = Toxicity in mouse assessed as increase in blood total bilirubin level at 5 mg/kg; format: organism-based; conditions: in vivo
[25] = Toxicity in mouse assessed as increase in blood BUN level at 5 mg/kg; format: organism-based; conditions: in vivo
[26] = Toxicity in mouse assessed as increase in blood GGT level at 5 mg/kg; format: organism-based; conditions: in vivo
[27] = Toxicity in mouse assessed as increase in blood glutamic pyruvic transaminase level at 5 mg/kg; format: organism-based; conditions: in vivo
[28] = Toxicity in mouse assessed as increase in blood creatinine level at 5 mg/kg; format: organism-based; conditions: in vivo
[29] = Toxicity in mouse assessed as decrease in total protein level at 5 mg/kg; format: organism-based; conditions: in vivo
[30] = Toxicity in mouse assessed as decrease in platelet level at 5 mg/kg; format: organism-based; conditions: in vivo
MGC-803 [31] = assay: Antitumor activity against human MGC-803 cells assessed as cell growth inhibition incubated for 72 hrs by MTT assay; format: functional, cell-based; conditions: MGC-803, 72 h
NCI-H1299 = assay: Antitumor activity against human NCI-H1299 cells assessed as cell growth inhibition incubated for 72 hrs by MTT assay; format: functional, cell-based; conditions: NCI-H1299, 72 h
MCF7 = assay: Antitumor activity against human MCF7 cells assessed as cell growth inhibition incubated for 72 hrs by MTT assay; format: functional, cell-based; conditions: MCF7, 72 h
[32] = Antitumor activity against human EC1 cells assessed as cell growth inhibition incubated for 72 hrs by MTT assay; format: functional, cell-based; conditions: EC1, 72 h
PC-3 [33] = assay: Antitumor activity against human PC-3 cells assessed as cell growth inhibition incubated for 72 hrs by MTT assay; format: functional, cell-based; conditions: PC-3, 72 h
[34] = Solubility in cell culture medium by HPLC analysis; format: physicochemical

IC50 [1]: 36.6 µM
Compound: O=C(OC12CC3CC(CC(C3)C1)C2)c1ccc(NCc2cc(O)ccc2O)cc1

IC50 [5]: 42.8 µM
Compound: CC(C)N(CCCCOCC(=O)NS(C)(=O)=O)c1cnc(-c2ccccc2)c(-c2ccccc2)n1 [SELEXIPAG]
Activity (PC-3 [2]): Active | Activity (PC-3 [3]): Active | Activity (PC-3 [4]): Active | Activity (MGC-803 [6]): Active | Activity (MGC-803 [7]): Active | Activity (MGC-803 [8]): Active | Activity (PC-3 [9]): 44.88% | Activity (PC-3 [10]): 34.85% | Activity (PC-3 [11]): 18.81% | Activity (MGC-803 [12]): 49.75% | Activity (MGC-803 [13]): 27.3% | Activity (MGC-803 [14]): 21.27% | viability at 20 µM (PC-3 [15]): 92.7% | Activity (PC-3 [16]): 0.57% | Activity (PC-3 [17]): 4.54% | Activity (PC-3 [18]): 2.22% | viability at 20 µM (MGC-803 [19]): 96.8% | Activity (MGC-803 [20]): 1.58% | Activity (MGC-803 [21]): 1.21% | Activity (MGC-803 [22]): 0.44%

Compound: CC(=O)O[C@H]1C(=O)[C@@]2(C)[C@H]([C@H](OC(=O)c3ccccc3)[C@]3(O)C[C@H](OC(=O)[C@H](O)[C@@H](NC(=O)c4ccccc4)c4ccccc4)C(C)=C1C3(C)C)[C@]1(OC(C)=O)CO[C@@H]1C[C@@H]2O [PACLITAXEL]
inhibition in vivo at 5 mg/kg (PC-3 [23]): 75.8% | Activity [24]: Toxic | Activity [25]: Toxic | Activity [26]: Toxic | Activity [27]: Toxic | Activity [28]: Toxic | Activity [29]: Toxic | Activity [30]: Toxic

IC50 [5]: 2.4 µM | IC50 (MGC-803 [31]): > 100 µM | IC50 (NCI-H1299): > 100 µM | IC50 (MCF7): > 100 µM | IC50 (PC-3 [33]): 70.9 µM | solubility [34]: 0.08 µg/mL (≈ 0.178 µM)
Compound: O=C(NCC1CCN(c2cnc(-c3ccccc3)c(-c3ccccc3)n2)CC1)c1ccccc1
IC50 [32]: 81.1 µM
